Data on 1 compound can be found in patent US6242452A, “7-aminopyrido[2,3-D]pyrimidine derivatives” (Nippon Zoki Pharmaceutical Co., Ltd., priority 1998, dated 2001).

Bounds are passed on as bounds.

In one series the test system is Mice. The series is described as follows: Influence on general symptoms of mice (modified Irwin's method). It is filed as in vivo. Conditions: for Death: oral, 5 mice per group, until the next day. As for the experimental part:
Influence on General Symptoms of Mice
Mice having no abnormality in their appearance before administration of the test drugs were selected, and five mice were used for each group. Oral administration of the test compound was carried out and, 30 minutes, one hour and two hours thereafter, observations were conducted according to the modified method of Irwin's method for observing the general symptoms of mice. Degree of the symptom was evaluated in terms of (+) and (-) and, when the symptom was apparently severe, it was mentioned as (++). Also, death was observed until the next day of the administration.
1) Suppression of spontaneous motility: When mice were transferred from a home cage to a cage for symptom observation and, if motion of the mice was less than the non-administered group at that time, that was evaluated as (+).
2) Muscle relaxation: When forefeet of mice were hung on a wire stretched horizontally so that the mice were hung by means of the forefeet and, if their reaction at that time for climbing up the wire took a longer time than the non-administered group, that was evaluated as (+).
4) Blepharoptosis: If 1/4 or more was closed as compared with the non-administered group, that was evaluated as (+).
5) Salivation: If salivation was noted a little around the mouth, that was evaluated as (+).
6) Death: If dead case was noted, that was mentioned as such.
5-Amino-1,3-diethyl-1,2,3,4-tetrahydropyrido[2,3-d]-pyrimidine-2,4-dione (Control Compound B; a compound mentioned in Japanese Laid-Open Patent Publication Sho-63/45279 and in U.S. Pat. Nos. 4,808,587 and 5,776,942) was used as a control drug.

The nature of series [1]: Concentration in blood of guinea pigs. The series is classed as in vivo. Conditions: guinea pig, oral, 30 mg/kg in 1% methyl cellulose, plasma, HPLC. As for the experimental part: Concentration in Blood of Guinea Pigs
Each test substance was orally administered at a dose of 30 mg/kg. It was suspended in 1% methyl cellulose and made into a preparation so as to make the administering dose 5 mL/kg. A group consisted of four animals and blood was collected after 30 minutes, 1 hour, 2 hours, 4 hours, 6 hours and 24 hours from the administration. (A feed was given after collection of the blood after 6 hours). Thus, each about […] (corresponding to four capillary tubes) of blood were collected with intervals using a heparintreated capillary tube and plasma was separated by a hematocrit centrifuge to prepare a plasma sample. A plasma sample of about […] was preserved at -80° C. until the measurement. Methanol ([…]) was added to […] of the plasma followed by mixing, the mixture was centrifuged at 1500×g for ten minutes at […] and the separated supernatant liquid was filtered through a membrane filter of […]. The filtrate was used as a sample for an HPLC, analyzed under the analyzing condition that the column was 100 mm×4.6 mm (inner diameter) of TSK-gel Super ODS, the flow rate was 1.0 mL/minute, the column temperature was 40° C., an injection amount was […], detection was done by UV of 225 nm and the mobile phase was water-acetonitrile (75:25 in terms of % by volume) and the maximum concentration in blood (Cmax), time required for achieving the maximum concentration in blood (Tmax), half life in blood (T1/2) and area under a curve of concentration in blood vs. time (AUC 0-lim) were determined. RS-25344 (Cell Signalling, 7(5), 527 (1995); Mol. Pharmacol., 48, 616 (1995)) and CR-77059 (J. Med. Chem., 34, 624 (1991); J. Pharmacol. Exp. Ther., 272, 3,1313 (1995)) were used as control drugs.

In series [2] the test system is airway smooth muscle isolated from guinea pigs. The series can be described thus: Relaxing action to smooth muscle of airway of guinea pigs (histamine-constricted). The series is classed as cell-based. The following applies: Cavia porcellus; guinea pig airway, constricted with 10^-4 M histamine, cumulative addition; read-out: EC50, concentration showing 50% of the maximum reaction (relaxation). From the text:
[…] Action to Smooth Muscle of Airway of Guinea Pigs A guinea pig was killed by draining out the blood, the airway was isolated, and four airway pieces having a width of about 1 cm cut along the cartilage were connected by silk yarn to prepare an airway smooth muscle sample. The sample was hung with a load of about 0.5 g in a 5-mL Magnus vessel filled with a Tyrode solution and aerated with a mixed gas (95% O2 and 5% CO2). […] This was repeatedly treated with 10^-5 M of histamine and, after confirming that the constriction became constant, it was treated with 10^-4 M of histamine. After the maximum constriction reaction of the smooth muscle became constant, the test compound was added thereto starting from a low concentration cumulatively to investigate the relaxing action. […] Pat. […] Pat. No. 4,808,587 to Go et al and in U.S. Pat. No. 5,776,942 to Furukawa et al) and theophylline were used as control agents.

The subject of series [3] is smooth muscle of blood vessel isolated from rats. The series can be described thus: Influence on continuous constriction of smooth muscle of blood vessel isolated from rats (noradrenaline-constricted pulmonary main artery). The series is classed as cell-based. Conditions: rat pulmonary main artery, constricted with 10^-7 M noradrenaline, 37° C.; read-out: EC50, concentration showing 50% of the maximum reaction (relaxation). As for the experimental part: Influence on Continuous Constriction of […] Smooth Muscle of Rats
The back of the head of a rat was struck to cause a cerebral concussion, carotid arteries on both sides were immediately cut and the pulmonary main artery was isolated. The isolated artery was fully aerated with a mixed gas (95% O2 and 5% CO2), placed in a Krebs-Henselite solution warmed at 37° C., excessive tissues were removed as much as possible and a spiral sample (having a width of about 2 mm and a length of 15 mm) was prepared according to a method of Furchgott, et al. The blood vessel sample was hung with a load of about 0.5 g in a 5-mL Magnus vessel filled with a Krebs-Henseleit solution and aerated with a mixed gas (95% O2 and 5% CO2). After the sample was allowed to stand for 30 minutes to one hour, it was treated with noradrenaline (final concentration: 10^-7 M) and the constricting reaction was amplified via an amplifier for blood pressure using an FD pickup and recorded on a recorder. Noradrenaline (10^-7 M) was repeatedly applied and, after confirming that the constriction became constant, 10^-7 M of noradrenaline was applied. After the maximum shrinking reaction of the smooth muscle became constant, the test compound was added thereto starting from a low concentration cumulatively to investigate the relaxing action. A dose vs. reaction curve was prepared from the isotonic reaction of various concentrations of the test compound and an EC50, a concentration showing 50% of the maximum reaction, was determined.

As to `CCCn1c(=O)c2ccc(N)nc2n(-c2cc(OC)cc(OC)c2)c1=O` [Compound 6, 7-amino-1-(3,5-dimethoxyphenyl)-1,2,3,4-tetrahydro-3-propylpyrido[2,3-d]pyrimidine-2,4-dione], the Blepharoptosis result in the series with Mice (mouse, in vivo, po, 300 mg/kg) is on record as “(+) × 1”; in the series with Mice (mouse, in vivo, po, 1000 mg/kg) it was “(+) × 2”. Moreover, the “Suppression of spontaneous motility” value is recorded as “(+) × 1” in the series on Mice (mouse, in vivo, po, 300 mg/kg) and “(+) × 2” with Mice (mouse, in vivo, po, 1000 mg/kg). In the series on Mice (mouse, in vivo, po, 1000 mg/kg), the Muscle relaxation entry is “(+) × 2”. For the same compound, the Death in the series with Mice (300 mg/kg) and in the series on Mice (1000 mg/kg) was 0 throughout. Besides, in series [1] (read-out: AUC 0-lim, area under a curve of concentration in blood vs. time), the AUC came to 256 µg·h/mL. For the same compound, the Cmax in series [1] (read-out: Cmax, maximum concentration in blood) was found to be 13700 ng/mL. For the same compound, in series [1] (read-out: T1/2, half life in blood (converted)), the half-life is 28.4 h. The Tmax in series [1] (read-out: Tmax, time required for achieving the maximum concentration in blood) turned out to be 4 h. The EC50 in series [2] is 400 nM; in series [3], > 100000 nM.
